In US20060167057A1, “Compounds for the treatment of CNS and amyloid associated diseases” (priority 2004, published 2006):

Legend:
[1] = target: Aβ40 (Homo sapiens, UniProt P05067); assay: Electrospray MS assay for binding to Aβ40; design: key: +++ = Strong (70 and higher % of free peptide); ++ = Moderate (50-70% of free peptide); + = Weak (25-50% of free peptide); 0 = None; settings: 100 μM compound, 20 μM Aβ40, pH 7.4
Description: (§1) The ability of a therapeutic compound of the invention to inhibit an interaction between an amyloidogenic protein and a glycoprotein or proteoglycan constituent of a basement membrane can be assessed by an in vitro binding assay, such as that described in U.S. Pat. No. 5,164,295, the contents of which are hereby incorporated by reference. Alternatively, the ability of a compound to bind to an amyloidogenic protein or to inhibit the binding of a basement membrane constituent (e.g. HSPG) to an amyloidogenic protein (e.g. Aβ) can be measured using a mass spectrometry assay where soluble protein, e.g Aβ, IAPP, β2M is incubated with the compound. A compound which binds to, e.g Aβ, will induce a change in the mass spectrum of the protein. Exemplary protocols for a mass spectrometry assay employing Aβ and IAPP can be found in the Examples, the results of which are provided in Table 5. The protocol can readily be modified to adjust the sensitivity of the data, e.g., by adjusting the amount of protein and/or compound employed. Thus, e.g., binding might be detected for test compounds noted as not having detectable binding employing less sensitive test protocols.
The binding ability between the compounds synthesized in Example 4 and Aβ40 in an aqueous solution is tested. The binding ability is attributed semi-quantitatively from the intensities of peptide-compound complex peaks observed in the Electrospray Mass Spectrum.
In the MS assay for Aβ40, samples are prepared as aqueous solutions adding 20% ethanol if necessary to solubilize in water. The stock solution of the peptide contains 50 μm Aβ40. In a typical experiment, 100 μM of an exemplary compound as prepared in Example 4 and 20 μM of solubilized Aβ40 are used. The ratio of the compound: peptide is 5:1. The pH value of each sample is adjusted to 7.4 (±0.2) by addition of 0.1% aqueous sodium hydroxide. The solutions are then analyzed by electrospray ionization mass spectrometry using a Waters ZQ 4000 mass spectrometer. Samples are introduced by direct infusion at a flow-rate of 25 μL/min within 2 hr. after sample preparation. The source temperature is kept at 70° C. and the cone voltage is 20 V for all the analysis. Data are processed using Masslynx 3.5 software. Aβ 1-40 (M.W.=4329) alone at 20 μM is analyzed at pH 7.32 as a control. Sodium clusters, which are typical of this system at +3 and +4 at m/z […] regions, may be observed. The MS assay gives data on the ability of compounds to bind to soluble Aβ, whereas the ThT, EM and CD assays give data on inhibition of fibrillogenesis.
In Table 7, a blank box means that a value was not determined for that compound in that assay.

[2] = target: T1, IAPP (Homo sapiens, UniProt P10997); assay: Electrospray MS assay for binding to IAPP; design: key to MS Results (IAPP binding), Water: 0 = None; settings: 100 μM compound, 20 μM IAPP; for MS Results (IAPP binding), Water: pH 7.4, aqueous solution; for MS Results (IAPP binding), 20% Ethanol: pH 7.4, 20% ethanol in water
T1 construct: which is a 37 amino acid peptide, derived from a larger precursor peptide, called pro-IAPP
T1 sequence (P10997 34-70 limits assumed): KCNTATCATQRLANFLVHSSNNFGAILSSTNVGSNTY
Description: as §1
The binding ability between the compounds synthesized in Example 4 and IAPP in an aqueous solution is tested. The binding ability is attributed semi-quantitatively from the intensities of peptide-compound complex peaks observed in the Electrospray Mass Spectrum.
In the MS assay for IAPP, samples are prepared as both aqueous solutions and as 20% ethanol in water solutions, including 100 μM of an exemplary compound as prepared in. Example 4 and 20 μM of solubilized IAPP. The stock solution contains 30 μM IAPP and the initial pH is 3.8. Generally, IAPP precipitates out of solution at concentrations higher than 50 μM and pH higher than ˜6 as soon as a test compound is mixed with the peptide. The pH value of each sample, therefore, is adjusted to 7.4 ([…]) by addition of 0.1% aqueous sodium hydroxide. The solutions aer then analyzed by electrospray ionization mass spectrometry using a Waters ZQ 4000 mass spectrometer. Samples are introduced by direct infusion at a flow-rate of 25 μL/min within 2 hr. after sample preparation. The source temperature is kept at 70° C. and the cone voltage is 20 V for all the analysis. Data are processed using Masslynx 3.5 software. IAPP (MW 3903.4) alone at 20 μM is analyzed at pH 7.32 as a control. Sodium clusters, which are typical of this system at +3 and +4 at m/z 1301.9 and 976.7 regions, may be observed. In Table 8, a blank box means that a value was not determined for that compound in that assay.

[3] = target: T2, L1 transport system (large neutral amino acid carrier, L1-system carrier) (Rattus norvegicus, UniProt Q63016); assay: Competitive binding assay to the brain L1 transport system (L-[U-14C]phenylalanine on rat primary cerebrovascular endothelial cells)
T2 construct: functionality of their endogenous transporters such as the L1-system carrier; endogenous in cells; host or cells: rat primary cerebrovascular (brain microcapillary) endothelial cells, RBEC
Outline: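 Cells were primary cerebral microvascular endothelial cells from cortices of 24-day-old rats, isolated by collagenase/DNAse digestion, dextran separation and mesh filtration.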

Sequence of Aβ40 (P05067 672-711 limits assumed): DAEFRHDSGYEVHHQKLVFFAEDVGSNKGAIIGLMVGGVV
T2 sequence (Q63016 whole entry): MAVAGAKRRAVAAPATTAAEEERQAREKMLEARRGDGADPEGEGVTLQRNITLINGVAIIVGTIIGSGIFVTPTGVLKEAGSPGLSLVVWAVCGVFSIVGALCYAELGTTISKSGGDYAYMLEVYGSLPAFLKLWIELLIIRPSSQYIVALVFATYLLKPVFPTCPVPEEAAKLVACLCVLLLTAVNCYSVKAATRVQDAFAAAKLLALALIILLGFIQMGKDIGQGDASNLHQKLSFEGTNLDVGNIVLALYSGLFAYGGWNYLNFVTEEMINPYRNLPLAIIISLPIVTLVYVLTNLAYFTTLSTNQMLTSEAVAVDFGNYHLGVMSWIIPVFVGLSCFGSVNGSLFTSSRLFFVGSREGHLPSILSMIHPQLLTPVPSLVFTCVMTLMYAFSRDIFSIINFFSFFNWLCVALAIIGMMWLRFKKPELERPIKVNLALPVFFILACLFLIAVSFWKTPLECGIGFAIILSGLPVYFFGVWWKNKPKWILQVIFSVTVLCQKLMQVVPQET
T2 sequence (Q794F9 whole entry partner): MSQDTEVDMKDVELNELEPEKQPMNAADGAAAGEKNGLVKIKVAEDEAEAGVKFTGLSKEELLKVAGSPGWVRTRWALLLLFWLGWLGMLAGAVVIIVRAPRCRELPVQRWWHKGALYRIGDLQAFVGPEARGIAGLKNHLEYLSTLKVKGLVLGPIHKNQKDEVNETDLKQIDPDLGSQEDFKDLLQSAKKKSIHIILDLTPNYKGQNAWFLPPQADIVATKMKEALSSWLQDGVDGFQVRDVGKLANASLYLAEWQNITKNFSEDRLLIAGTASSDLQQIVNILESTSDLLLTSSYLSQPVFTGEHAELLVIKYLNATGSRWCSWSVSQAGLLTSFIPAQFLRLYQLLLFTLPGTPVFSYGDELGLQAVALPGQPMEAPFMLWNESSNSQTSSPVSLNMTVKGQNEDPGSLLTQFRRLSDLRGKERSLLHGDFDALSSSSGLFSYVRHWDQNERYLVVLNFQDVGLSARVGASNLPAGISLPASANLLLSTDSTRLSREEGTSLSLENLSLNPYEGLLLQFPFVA

Row | MS Results (Aβ 1-40 binding) [1] | MS Results (IAPP binding), Water [2] | SMILES | also measured
1 | + (+ = Weak (25-50% of free peptide)) |  | COc1ccc(-n2nnnc2[S+]([O-])Cc2cccc(C[C@H](N)C(=O)O)c2)cc1 (stereo partly shown) [drawing 503] | 
2 |  | + (+ = Weak (15-30% of free peptide)) | N[C@@H](Cc1cccc(CSc2nnc(-c3ccncc3)[nH]2)c1)C(=O)O [drawing 528] | 
3 | 0 |  | N[C@@H](Cc1cccc(C[S+]([O-])c2nnnn2-c2ccccc2)n1)C(=O)O (stereo partly shown) [drawing 500] | 
4 | + (+ = Weak (25-50% of free peptide)) |  | N[C@@H](Cc1cccc(CSc2nnnn2-c2ccc(O)cc2)c1)C(=O)O [drawing 501] | 
5 | + (+ = Weak (25-50% of free peptide)) |  | N[C@@H](Cc1cccc(C[S+]([O-])c2nnnn2-c2ccccc2)c1)C(=O)O (stereo partly shown) [drawing 496] | 
6 |  | 0 | N[C@@H](Cc1cccc(CS(=O)(=O)c2ncc[nH]2)c1)C(=O)O [drawing 527] | 
7 |  |  | COc1ccc(-n2nnnc2SCc2cccc(C[C@H](N)C(=O)O)c2)cc1 [drawing 508] | MS Results (IAPP binding), 20% Ethanol [2]: +++ (+++ = Strong (50 and higher % of free peptide))
8 | + (+ = Weak (25-50% of free peptide)) |  | N[C@@H](Cc1cccc(CS(=O)(=O)c2ncc[nH]2)c1)C(=O)O [drawing 505] | 
9 | Compound insoluble |  | N[C@@H](Cc1cccc(CSc2nccc(C(F)(F)F)n2)n1)C(=O)O [drawing 497] | 
10 |  | 0 | N[C@@H](Cc1cccc(CS(=O)(=O)c2nc3ccccc3[nH]2)n1)C(=O)O [drawing 514] | 
11 | 0 |  | N[C@@H](Cc1cccc(CSc2nccc(O)n2)c1)C(=O)O [drawing 495] | 
12 | + (+ = Weak (25-50% of free peptide)) |  | N[C@@H](Cc1cccc(CS(=O)(=O)c2nc3ccccc3[nH]2)n1)C(=O)O [drawing 493] | 
13 | Compound Insoluble |  | N[C@@H](Cc1cccc(CSc2nc3ccc(Cl)cc3s2)n1)C(=O)O [drawing 498] | 
14 |  | 0 | N[C@@H](Cc1cccc(C[S+]([O-])c2nnnn2-c2ccccc2)n1)C(=O)O (stereo partly shown) [drawing 522] | MS Results (IAPP binding), 20% Ethanol [2]: ++ (++ = Moderate (30-50% of free peptide))
15 |  | 0 | N[C@@H](Cc1cccc(CSc2ncnc3[nH]ncc23)n1)C(=O)O [drawing 513] | 
16 |  | insoluble | N[C@@H](Cc1cccc(CSc2nccc(C(F)(F)F)n2)n1)C(=O)O [drawing 519] | 
17 | + (+ = Weak (25-50% of free peptide)) |  | N[C@@H](Cc1cccc(CSc2nc3ccccc3[nH]2)c1)C(=O)O [drawing 489] | 
18 | + (+ = Weak (25-50% of free peptide)) |  | N[C@@H](Cc1cccc(CSc2nnc(-c3ccccc3)[nH]2)c1)C(=O)O [drawing 490] | 

Row | MS Results (Aβ 1-40 binding) [1] | MS Results (IAPP binding), Water [2] | SMILES | also measured
19 |  | + (+ = Weak (15-30% of free peptide)) | CN(C)CCn1nnnc1SCc1cccc(C[C@H](N)C(=O)O)c1 [drawing 525] | MS Results (IAPP binding), 20% Ethanol [2]: + (+ = Weak (15-30% of free peptide))
20 |  | + (+ = Weak (15-30% of free peptide)) | N[C@@H](Cc1cccc(CS(=O)(=O)c2nc3ccccc3[nH]2)c1)C(=O)O [drawing 521] | 
21 |  | + (+ = Weak (15-30% of free peptide)) | COc1ccc(-n2nnnc2[S+]([O-])Cc2cccc(C[C@H](N)C(=O)O)c2)cc1 (stereo partly shown) [drawing 516] | 
22 |  | + (+ = Weak (15-30% of free peptide)) | N[C@@H](Cc1cccc(CSc2nnnn2-c2ccccc2)c1)C(=O)O [drawing 509] | MS Results (IAPP binding), 20% Ethanol [2]: ++ (++ = Moderate (30-50% of free peptide))
23 |  | 0 | N[C@@H](Cc1cccc(C[S+]([O-])c2nnc(-c3ccccc3)[nH]2)c1)C(=O)O (stereo partly shown) [drawing 526] | 
24 |  | + (+ = Weak (15-30% of free peptide)) | N[C@@H](Cc1cccc(CSc2nnc(-c3ccccc3)[nH]2)c1)C(=O)O [drawing 511] | 
25 | + (+ = Weak (25-50% of free peptide)) |  | N[C@@H](Cc1cccc(CSc2ncnc3[nH]ncc23)n1)C(=O)O [drawing 492] | 
26 | 0 |  | COc1ccc(-n2nnnc2[S+]([O-])Cc2cccc(C[C@H](N)C(=O)O)c2)cc1 (stereo partly shown) [drawing 494] | 
27 | + (+ = Weak (25-50% of free peptide)) |  | N[C@@H](Cc1cccc(CSc2nnnn2-c2ccccc2)c1)C(=O)O [drawing 488] | 
28 | + (+ = Weak (25-50% of free peptide)) |  | N[C@@H](Cc1cccc(CSc2nnc(-c3ccncc3)o2)c1)C(=O)O [drawing 502] | 
29 |  | 0 | N[C@@H](Cc1cccc(CSc2nc3ccccc3[nH]2)c1)C(=O)O [drawing 510] | MS Results (IAPP binding), 20% Ethanol [2]: + (+ = Weak (15-30% of free peptide))
30 |  | 0 | N[C@@H](Cc1cccc(CSc2nccc(O)n2)c1)C(=O)O [drawing 517] | 
31 | + (+ = Weak (25-50% of free peptide)) |  | COc1ccc(-n2nnnc2SCc2cccc(C[C@H](N)C(=O)O)c2)cc1 [drawing 487] | 
32 |  | 0 | N[C@@H](Cc1cccc(CSc2nc3ccccc3[nH]2)n1)C(=O)O [drawing 512] | 
33 |  | 0 | N[C@@H](Cc1cccc(CSc2ncc[nH]2)c1)C(=O)O | 
34 | 0 |  | N[C@@H](Cc1cccc(C[S+]([O-])c2nnc(-c3ccccc3)[nH]2)c1)C(=O)O (stereo partly shown) [drawing 504] | 
35 |  |  | NC(Cc1cccc(-c2cccc(Sc3ccc4ccccc4n3)c2)c1)C(=O)O (stereo not shown) [Compound 144] | Comparison with the Binding of Phenylalanine ([3]; 10^−4 M): 0 (X < 0 Rank 0); Comparison with the Binding of Phenylalanine ([3]; 10^−5 M): 0 (X < 0 Rank 0); Comparison with the Binding of Phenylalanine ([3]; 10^−6 M): 1 (0 < X < 10 Rank 1)

Row | SMILES | MS Results (Aβ 1-40 binding) [1] | MS Results (IAPP binding), Water [2] | also measured
36 | N[C@@H](Cc1cccc(C[S+]([O-])c2nnnn2-c2ccccc2)c1)C(=O)O (stereo partly shown) [drawing 518] |  | ++ (++ = Moderate (30-50% of free peptide)) | MS Results (IAPP binding), 20% Ethanol [2]: ++ (++ = Moderate (30-50% of free peptide))
37 | N[C@@H](Cc1cccc(CSc2nc3ccc(Cl)cc3s2)n1)C(=O)O [drawing 520] |  | +++ (+++ = Strong (50 and higher % of free peptide)) | 
38 | N[C@@H](Cc1cccc(CSc2nnnn2-c2ccc(O)cc2)c1)C(=O)O [drawing 523] |  | ++ (++ = Moderate (30-50% of free peptide)) | MS Results (IAPP binding), 20% Ethanol [2]: +++ (+++ = Strong (50 and higher % of free peptide))
39 | N[C@@H](Cc1cccc(CS(=O)(=O)c2nc3ccccc3[nH]2)c1)C(=O)O [drawing 499] | ++ (++ = Moderate (50-70% of free peptide)) |  | 
40 | N[C@@H](Cc1cccc(CSc2nnc(-c3ccncc3)o2)c1)C(=O)O [drawing 524] |  | ++ (++ = Moderate (30-50% of free peptide)) | MS Results (IAPP binding), 20% Ethanol [2]: + (+ = Weak (15-30% of free peptide))
